Patent publication US20040116513A1, “Method to alter the isomeric profile of trans fatty acid in ruminant meat and milk and to increase the concentration of $I(cis)-11 conjugated linoleic acid” (priority 2000, published 2004)

Assays:
growing chicks = conditions: cited from earlier work
lactating dairy cow = experiment: Vitamin E tolerated dose extrapolated to lactating dairy cow; format: in vivo; conditions: 500 kg lactating dairy cow, extrapolated from chicks
Excerpt: Vitamin E has a toxic effect only at very high dosages. In growing chicks, daily intake of 1000 IU/kg of body weight is without negative effects. Corresponding dietary dose in a 500 kg lactating dairy cow would be 500 000 IU/d which far exceeds the effective dose range in this invention as described before.

[1] = tested on: multiparous Holstein cows; experiment: Animal study of dietary addition of vitamin E to an oilseed diet: milk production and milk fatty acid profile; format: in vivo, cow; conditions: result in words
Protocol: The effect of Vitamin E addition in the diet on milk fat depression as well as on the biohydrogenation shift from trans-11 to trans-10 fatty acids classically observed upon feeding of high doses of unsaturated fatty acids, was tested in vivo with six multiparous Holstein cows that yielded more than 25 kg milk/d.
A Latin square experimental design consisting of three groups of two cows, three periods of four weeks and three diets (control, oilseed and oilseed+tocopheryl-acetate) was followed. For all groups, the mixed basal diet consisted, in dry matter terms, of 30% grass silage, 46% corn silage, 13% dried sugar beet pulp, 10% soybean meal and 1% mineral & vitamin mixture. The oilseed concentrate consisted of 50% barley, 25% rapeseed and 25% linseed, whereas its control counterpart was made of 50% barley, 25% rapeseed meal and 25% linseed meal.
The amounts of oilseeds concentrate offered were calculated to provide approximately 550 g/d of supplemental lipids. In addition, cows fed oilseed diet plus Vitamin E received 9600 IU of the vitamin per day, together with the oilseed concentrate.
Milk weights were automatically recorded daily at each milking. Milk samples were taken during the last week of each period and analysed for crude protein, fat and fatty acid profile. Quantification of the trans-C18:1 and CLA isomers was performed by gas chromatography as described in Griinari et al. (1998).

CC(=O)Oc1c(C)c(C)c2c(c1C)CCC(C)(CCC[C@H](C)CCC[C@H](C)CCCC(C)C)O2 (mixture of isomers) [vitamin E, all-rac-α-tocopheryl acetate]
daily intake without negative effects (growing chicks): 1000 IU/kg of body weight | corresponding dietary dose without negative effects (lactating dairy cow): 500 000 IU/d | CLA content (cis-9, trans-11 C18:2) of milk fat [1]: increased CLA content dramatically | level of trans-10 C18:1 in milk fat [1]: decreased to control levels | level of trans-11 C18:1 in milk fat [1]: increased significantly | levels of C4:0 to C16:0 saturated fatty acids in milk [1]: no major impact | levels of stearic acid (C18:0) in milk [1]: no major impact | milk fat yield [1]: complete recovery | shift in the ruminal biohydrogenation process (trans-11 to trans-10) [1]: completely abolished | total monounsaturated C18 (C18:1) fatty acids in milk [1]: no major impact
